Read-outs that look alike come from different tables or passages of the source.
Target: T1, E. coli CsgA (Escherichia coli, UniProt P28307)
T1 construct: made in house; host or cells: E. coli NEB 3016 slyD::kan, pET11d
Assay: In vitro ThioflavinT assay of CsgA aggregation (CsgA ThT Assay)
Format: biochemical
Conditions: for remaining activity at 25 µM: compound 25 μM; for remaining activity at 100 µM: compound 100 μM
How it was run: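 Purified C-terminal His-tagged CsgA, monomerised by desalting and 30-kDa filtration, at 2-20 μM with 20-40 μM ThT in 50 mM potassium phosphate pH 7.3, 1% DMSO, compounds 3.125-200 uM; room temperature, fluorescence (ex 438/em 495 nm) read every 15 min. Background-subtracted signal expressed as percent inhibition versus vehicle at 6-6.5 or 8-9 h, or as percent control AUC.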

[1] = read-out: CsgA ThT Assay (10 μM CsgA) % Control AUC at 1005 minutes, 25 μM (activity range), CsgA 10 μM, black plates, 1005 minutes, class symbol
[2] = read-out: CsgA ThT Assay (10 μM CsgA) % Control AUC at 1005 minutes, 25 μM, mean AUC as % of DMSO control, CsgA 10 μM, black plates, 1005 minutes
[3] = read-out: CsgA ThT Assay (10 μM CsgA) % Control AUC at 1005 minutes, 100 μM (activity range), CsgA 10 μM, black plates, 1005 minutes, class symbol
[4] = read-out: CsgA ThT Assay (10 μM CsgA) % Control AUC at 1005 minutes, 100 μM, mean AUC as % of DMSO control, CsgA 10 μM, black plates, 1005 minutes
[5] = read-out: CsgA ThT Assay (2 μM CsgA) % Control Bmax 25 μM, activity range, class symbol, CsgA 2 μM, white plates
[6] = read-out: CsgA ThT Assay (2 μM CsgA) % Control Bmax 25 μM, mean Bmax as percentage of DMSO control, CsgA 2 μM, white plates
[7] = read-out: CsgA ThT Assay (2 μM CsgA) % Control Bmax 100 μM, activity range, class symbol, CsgA 2 μM, white plates
[8] = read-out: CsgA ThT Assay (2 μM CsgA) % Control Bmax 100 μM, mean Bmax as percentage of DMSO control, CsgA 2 μM, white plates

T1 sequence (P28307 23-151): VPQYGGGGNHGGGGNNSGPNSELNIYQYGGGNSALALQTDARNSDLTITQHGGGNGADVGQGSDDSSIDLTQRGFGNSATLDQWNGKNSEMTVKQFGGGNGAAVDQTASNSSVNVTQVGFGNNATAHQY

SMILES	remaining activity at 25 µM [1] [%]	remaining activity at 25 µM [2] [%]	remaining activity at 100 µM [3] [%]	remaining activity at 100 µM [4] [%]	remaining activity at 25 µM [5] [%]	remaining activity at 25 µM [6] [%]	remaining activity at 100 µM [7] [%]	remaining activity at 100 µM [8] [%]
CC1(C(=O)O)CNS(=O)(=O)c2c(-c3cccc(C(F)(F)F)c3)c(Cc3cccc4ccccc34)cc(=O)n21 (centres unmarked) [Compound 042, 4-methyl-8-(naphthalen-1-ylmethyl)-6-oxo-9-(3-(trifluoromethyl)phenyl)-3,4-dihydro-2H,6H-pyrido[1,2-e][1,2,5]thiadiazine-4-carboxylic acid 1,1-dioxide]	31 to 60	52	11 to 31	18	–	–	–	–
CC(C)N1CC(C(=O)O)n2c1c(-c1cccc(C(F)(F)F)c1)c(Cc1cccc3ccccc13)c(Cl)c2=O (centres unmarked) [Compound 179, 6-chloro-1-isopropyl-7-(naphthalen-1-ylmethyl)-5-oxo-8-(3-(trifluoromethyl)phenyl)-1,2,3,5-tetrahydroimidazo[1,2-a]pyridine-3-carboxylic acid]	–	–	–	–	> 60	65	31 to 60	48
CN1CC(C(=O)O)n2c(c(-c3cccc(C(F)(F)F)c3)c(Cc3cccc4ccccc34)c(NCc3ccccc3)c2=O)S1(=O)=O (centres unmarked) [Compound 071]	11 to 31	25	> 60	78	–	–	–	–
O=C(O)C1CN(CCCO)S(=O)(=O)c2c(-c3cccc(C(F)(F)F)c3)c(Cc3cccc4ccccc34)cc(=O)n21 (centres unmarked) [Compound 056, 2-(3-hydroxypropyl)-8-(naphthalen-1-ylmethyl)-6-oxo-9-(3-(trifluoromethyl)phenyl)-3,4-dihydro-2H,6H-pyrido[1,2-e][1,2,5]thiadiazine-4-carboxylic acid 1,1-dioxide]	31 to 60	38	31 to 60	34	–	–	–	–
Cn1c(=O)c2c(nc(CCCCCCCN3CC(C(=O)O)n4c(c(-c5cccc(C(F)(F)F)c5)c(Cc5cccc6ccccc56)cc4=O)S3(=O)=O)n2C)n(C)c1=O (centres unmarked) [Compound 047, 8-(naphthalen-1-ylmethyl)-6-oxo-9-(3-(trifluoromethyl)phenyl)-2-(7-(1,3,7-trimethyl-2,6-dioxo-2,3,6,7-tetrahydro-1H-purin-8-yl)heptyl)-3,4-dihydro-2H,6H-pyrido[1,2-e][1,2,5]thiadiazine-4-carboxylic acid 1,1-dioxide]	31 to 60	55	> 60	71	–	–	–	–
CNC(=O)CCCCN1CC(C(=O)O)n2c(c(-c3cccc(C(F)(F)F)c3)c(Cc3cccc4ccccc34)cc2=O)S1(=O)=O (centres unmarked) [Compound 038, 2-(5-(methylamino)-5-oxopentyl)-8-(naphthalen-1-ylmethyl)-6-oxo-9-(3-(trifluoromethyl)phenyl)-3,4-dihydro-2H,6H-pyrido[1,2-e][1,2,5]thiadiazine-4-carboxylic acid 1,1-dioxide]	> 60	86	11 to 31	25	–	–	–	–
Cn1c(=O)c2c(nc(CCCCN3CC(C(=O)O)n4c(c(-c5cccc(C(F)(F)F)c5)c(Cc5cccc6ccccc56)cc4=O)S3(=O)=O)n2C)n(C)c1=O (centres unmarked) [Compound 044, 8-(naphthalen-1-ylmethyl)-6-oxo-9-(3-(trifluoromethyl)phenyl)-2-(4-(1,3,7-trimethyl-2,6-dioxo-2,3,6,7-tetrahydro-1H-purin-8-yl)butyl)-3,4-dihydro-2H,6H-pyrido[1,2-e][1,2,5]thiadiazine-4-carboxylic acid 1,1-dioxide]	31 to 60	55	31 to 60	42	–	–	–	–
CCCCN1CC(C(=O)O)n2c(c(-c3cccc(C(F)(F)F)c3)c(Cc3cccc4ccccc34)c(C(N)=O)c2=O)S1(=O)=O (centres unmarked) [Compound 177, 2-butyl-7-carbamoyl-8-(naphthalen-1-ylmethyl)-6-oxo-9-(3-(trifluoromethyl)phenyl)-3,4-dihydro-2H,6H-pyrido[1,2-e][1,2,5]thiadiazine-4-carboxylic acid 1,1-dioxide]	–	–	–	–	31 to 60	32	11 to 31	21
CCCN1CC(C(=O)O)n2c(c(-c3cccc(C(F)(F)F)c3)c(C(F)(F)c3cccc4ccccc34)cc2=O)S1(=O)=O (centres unmarked) [Compound 138, 8-(difluoro(naphthalen-1-yl)methyl)-6-oxo-2-propyl-9-(3-(trifluoromethyl)phenyl)-3,4-dihydro-2H,6H-pyrido[1,2-e][1,2,5]thiadiazine-4-carboxylic acid 1,1-dioxide]	–	–	–	–	> 60	73	31 to 60	43
O=C(O)C1CN(Cc2ccccc2)c2c(-c3cccc(C(F)(F)F)c3)c(C(F)(F)c3cccc4ccccc34)c(Br)c(=O)n21 (centres unmarked) [Compound 155, 1-benzyl-6-bromo-7-(difluoro(naphthalen-1-yl)methyl)-5-oxo-8-(3-(trifluoromethyl)phenyl)-1,2,3,5-tetrahydroimidazo[1,2-a]pyridine-3-carboxylic acid]	–	–	–	–	31 to 60	57	> 60	112
O=C(O)[C@@H]1CN(Cc2ccccc2)c2c(-c3cccc(C(F)(F)F)c3)c(Cc3cccc4ccccc34)c(Cl)c(=O)n21 (single isomer, unassigned) [Compound 004a]	–	–	–	–	> 60	64	11 to 31	24
O=C(O)C1CN(Cc2ccccc2)c2c(-c3cccc(C(F)(F)F)c3)c(Cc3cccc4ccccc34)cc(=O)n21 (centres unmarked) [Compound 187, 1-benzyl-7-(naphthalen-1-ylmethyl)-5-oxo-8-(3-(trifluoromethyl)phenyl)-1,2,3,5-tetrahydroimidazo[1,2-a]pyridine-3-carboxylic acid]	–	–	–	–	> 60	69	> 60	74
CCNC(=O)c1c(Cc2cccc3ccccc23)c(-c2cccc(C(F)(F)F)c2)c2n(c1=O)C(C(=O)O)CN(C)S2(=O)=O (centres unmarked) [Compound 156, 7-(ethylcarbamoyl)-2-methyl-8-(naphthalen-1-ylmethyl)-6-oxo-9-(3-(trifluoromethyl)phenyl)-3,4-dihydro-2H,6H-pyrido[1,2-e][1,2,5] thiadiazine-4-carboxylic acid 1,1-dioxide]	–	–	–	–	> 60	80	> 60	90
O=C(O)C1CN(CC2CCCC2)c2c(-c3cccc(C(F)(F)F)c3)c(Cc3cccc4ccccc34)c(Cl)c(=O)n21 (centres unmarked) [Compound 167, 6-chloro-1-(cyclopentylmethyl)-7-(naphthalen-1-ylmethyl)-5-oxo-8-(3-(trifluoromethyl)phenyl)-1,2,3,5-tetrahydroimidazo[1,2-a]pyridine-3-carboxylic acid]	–	–	–	–	> 60	65	31 to 60	49
CN1CC(C(=O)O)n2c(c(-c3cccc(C(F)(F)F)c3)c(Cc3cccc4ccccc34)c(NC3CCCC3)c2=O)S1(=O)=O (centres unmarked) [Compound 070, 7-(cyclopentylamino)-2-methyl-8-(naphthalen-1-ylmethyl)-6-oxo-9-(3-(trifluoromethyl)phenyl)-3,4-dihydro-2H,6H-pyrido[1,2-e][1,2,5]thiadiazine-4-carboxylic acid 1,1-dioxide]	11 to 31	17	11 to 31	29	–	–	–	–
CCCN1CC(C(=O)O)n2c(c(-c3cccc(C(F)(F)F)c3)c(Cc3cccc4ccccc34)c(O)c2=O)S1(=O)=O (centres unmarked) [Compound 141, 7-hydroxy-8-(naphthalen-1-ylmethyl)-6-oxo-2-propyl-9-(3-(trifluoromethyl)phenyl)-3,4-dihydro-2H,6H-pyrido[1,2-e][1,2,5]thiadiazine-4-carboxylic acid 1,1-dioxide]	–	–	–	–	> 60	80	> 60	94
O=C(O)C1CN(C[C@@H](O)CO)S(=O)(=O)c2c(-c3cccc(C(F)(F)F)c3)c(Cc3cccc4ccccc34)cc(=O)n21 (mixture of isomers) [Compound 065b, 2-((R)-2,3-dihydroxypropyl)-8-(naphthalen-1-ylmethyl)-6-oxo-9-(3-(trifluoromethyl)phenyl)-3,4-dihydro-2H,6H-pyrido[1,2-e][1,2,5]thiadiazine-4-carboxylic acid 1,1-dioxide]	> 60	66	11 to 31	16	–	–	–	–

Reference: patent US20230131899A1, “INHIBITORS OF MICROBIALLY INDUCED AMYLOID” (Axial Therapeutics, Inc., priority 2020, published 2023)
